Test results: patent US20130296273A1, “TREATMENT OF BLOOD CANCER” (Threshold Pharmaceuticals, Inc., priority 2010, published 2013)
Entries after “also recorded” stand apart in the source; their conditions may differ.

Assays:
5T33vt cells = assay: Cell cycle analysis in 5T33vt cells; assay type: cell-based, murine; conditions: hypoxia selective manner
[1] = test system: Karpas-707, LP-1, MMS1, and RPMI-8226 cells; assay: Cell cycle analysis in multiple myeloma cell lines under hypoxia; assay type: cell-based, human; conditions: hypoxic conditions; Karpas-707, LP-1, MMS1, RPMI-8226 cells
[2] = test system: cyclin D1/2/3, CDK4/6, p21cip-1, p27kip-1, pRb, CDK2 in RPMI-8226, LP-1, MMS1 and Karpas-707 multiple myeloma cells; assay: Western blotting of cell cycle machinery; assay type: cell-based, human
LP-1 cells = assay: Apoptosis in LP-1 cells; assay type: cell-based, human
Description: (§1) TH-302 (5 μM) decreased the accumulation of HIF1α in hypoxic RPMI-8226 cells. VEGFa secretion was reduced by TH-302 in 5T33vt cells. *p<0.05, **p<0.01, ***p<0.001, compared to 20% O2 (n=3).
(§2) By employing a set of defined gas mixtures (0%, 1%, 1.25%, 1.5%, 2%, 3%, 20% O2) for drug treatment of the multiple myeloma cells, the oxygen concentration dependent activation of TH-302 was tested in RPMI-8226, LP-1, MMS1 and 5T33vt multiple myeloma cells. […] As the O2 concentration was reduced to 0%, the fraction of apoptotic cells increased to about 70-75%.

[3] = test system: human and murine multiple myeloma cells; assay: Flow cytometry analysis of apoptosis / toxicity in multiple myeloma cells; assay type: cell-based; conditions: also RPMI-8226, 5T33vt, MMS1, Karpas-707 cells
Description: as §2

[4] = test system: BCL-2, BCL-xL, cleaved caspase-3, 8, 9 and PARP; assay: Western blotting of apoptosis proteins; assay type: cell-based
HIF1α in RPMI-8226 cells = assay: HIF1α accumulation/expression in hypoxic cells; assay type: cell-based, human
Description: as §1, §2

[5] = test system: VEGFa secretion in 5T33vt cells; assay: VEGFa secretion; assay type: cell-based, murine
Description: as §1, §2

[6] = test system: RPMI-8226, LP-1, MMS1 and 5T33vt multiple myeloma cells; assay: Oxygen concentration dependent activation of TH-302 (defined gas mixtures); assay type: cell-based, human and murine
Description: as §2

5T33MMvv mouse = 5T33MMvv mouse multiple myeloma model, prophylactic treatment for 3 weeks; assay type: in vivo; conditions: for multiple myeloma cell apoptosis vs vehicle-treated mice: bone marrow
Description: 5T33MMvv mice were treated prophylactically with TH-302 for 3 weeks. From day 1, the following were observed. […] Therefore, the cancer cytotoxic effect of TH-302 was associated with the hypoxic nature of multiple myeloma cells in the bone marrow.

naive mice = assay: Toxicity in TH-302 treated naive mice; assay type: in vivo, mouse; conditions: compared to vehicle-treated naive mice
[7] = test system: anti-apoptotic and pro-apoptotic Bcl-2 family proteins; assay: Immunoblotting of Bcl-2 family proteins, TH-302, bortezomib and combination; assay type: cell-based
Description: To further determine the mechanism of induction of apoptosis by this combination, the effect of TH-302, bortezomib and the combination on anti-apoptotic and pro-apoptotic Bcl-2 family proteins using immunoblotting was tested.

AML = assay: Clinical administration of TH-302 in advanced leukemia, AML patients; assay type: in vivo
Description: (§3) Clinical investigations were conducted to determine the safety, tolerability and clinically relevant disease responses of TH-302 in patients with acute leukemias, advanced phase chronic myelogenous leukemia (CML), high risk myelodysplastic syndromes, advanced myelofibrosis or relapsed/refractory chronic lymphocytic leukemia (CLL). TH-302 was administered as a 30 to 60 minute intravenous infusion daily for 5 days followed by 2 weeks off therapy. As needed, the 5 days of dosing could be spread out over 8 days. Patients who successfully completed a 3-week treatment cycle without evidence of significant treatment-related toxicity or progressive disease were continued on treatment and could receive treatment for up to six cycles.
(§4) Twenty-one patients have been treated in the study at TH-302 daily doses ranging from 120 mg/m^2 to 460 mg/m^2. All subjects had either AML or ALL and had generally received multiple prior therapies for their disease prior to enrolling for the study.

ALL = assay: Clinical administration of TH-302 in advanced leukemia, ALL patients; assay type: in vivo; conditions: one ALL patient
Description: as §3, §4

Question: With `Cn1c(COP(=O)(NCCBr)NCCBr)cnc1[N+](=O)[O-]` [TH-302] as the compound, how does the cell cycle arrest (5T33vt cells) read?
Answer: induced Go/G1 cell cycle arrest

Question: What about the cell cycle arrest [1] of the same compound?
Answer: induced Go/G1 cell cycle arrest

Question: What about the CDK2 expression [2] of the same compound?
Answer: remained undisturbed

Question: What about the “cyclin D1/2/3, CDK4/6, p21, p27 and pRb expression” value [2] of the same compound?
Answer: down-regulating

Question: What about the apoptosis (LP-1 cells; LP-1 cells under hypoxia, dose dependence) of the same compound?
Answer: triggered specific apoptosis in a dose-dependent manner

Question: What about the apoptosis (LP-1 cells; LP-1 cells, TH-302 5 μM) of the same compound?
Answer: induced apoptosis

Question: What about the apoptosis ([3]; hypoxic conditions, flow cytometry) of the same compound?
Answer: induced dose-dependent apoptosis

Question: And the “toxicity in normoxic conditions” value ([3]; normoxic conditions, even at high concentrations)?
Answer: very low toxicity

Question: What about the “anti-apoptotic proteins BCL-2 and BCL-xL” value [4] of the same compound?
Answer: down-regulation

Question: And the “expression of cleaved proapoptotic protein caspase-3, 8, 9 and PARP” value [4]?
Answer: up-regulation

Question: What about the “accumulation of HIF1α” value (HIF1α in RPMI-8226 cells; hypoxic RPMI-8226 cells, TH-302 5 μM) of the same compound?
Answer: decreased

Question: What about the “expression of HIF1α” value (HIF1α in RPMI-8226 cells; hypoxic condition, similar in 5T33vt, LP-1, Karpas-707 cells) of the same compound?
Answer: reduced

Question: And the VEGFa secretion [5]?
Answer: reduced; also recorded: significantly decreased

Question: And the “fraction of apoptotic cells” value ([6]; O2 concentration reduced to 0%)?
Answer: 70-75%

Question: And the “threshold of activating TH-302” value ([6]; gas mixtures 0%, 1%, 1.25%, 1.5%, 2%, 3%, 20% O2)?
Answer: < 1.5 % O2

Question: And the “microvessel density (MVD) in the bone marrow vs vehicle-treated mice” value (from here on “microvessel density … vs vehicle-treated mice”) (5T33MMvv mouse; 12.5 mg/kg)?
Answer: 19 % decrease

Question: And the “paraprotein secretion vs vehicle-treated mice” value (5T33MMvv mouse; 12.5 mg/kg)?
Answer: 32 % decrease

Question: What about the “multiple myeloma cell apoptosis vs vehicle-treated mice” value (5T33MMvv mouse; 12.5 mg/kg) of the same compound?
Answer: 2.5 fold

Question: What about the “microvessel density … vs vehicle-treated mice” value (5T33MMvv mouse; 25 mg/kg) of the same compound?
Answer: 20 % decrease

Question: And the “paraprotein secretion vs vehicle-treated mice” value (5T33MMvv mouse; 25 mg/kg)?
Answer: 77 % decrease

Question: And the “multiple myeloma cell apoptosis vs vehicle-treated mice” value (5T33MMvv mouse; 25 mg/kg)?
Answer: 2.1 fold

Question: What about the “microvessel density … vs vehicle-treated mice” value (5T33MMvv mouse; 50 mg/kg) of the same compound?
Answer: 26 % decrease

Question: What about the “paraprotein secretion vs vehicle-treated mice” value (5T33MMvv mouse; 50 mg/kg) of the same compound?
Answer: 54 % decrease

Question: What about the “multiple myeloma cell apoptosis vs vehicle-treated mice” value (5T33MMvv mouse; 50 mg/kg) of the same compound?
Answer: 3.1 fold

Question: What about the “toxicity in terms of body weight, HGB, RBC, WBC, HCT and MVD” value (naive mice) of the same compound?
Answer: no substantial toxicity

Question: And the “anti-apoptotic Mcl-1” value [7]?
Answer: decreased

Question: What about the “expression of anti-apoptotic Bcl-2 and Bcl-xL” value [7] of the same compound?
Answer: decreased

Question: And the “pro-apoptotic BH-3 member Noxa and cleavage of BID” value [7]?
Answer: induced

Question: And the platelet count (AML; one AML patient started at 120 mg/m^2/day)?
Answer: gradually improving

Question: What about the peripheral blast count (AML; one AML patient started at 120 mg/m^2/day, after each cycle) of the same compound?
Answer: decreased

Question: What about the disease response (AML; one AML patient, 240 mg/m^2/day, after cycle 1) of the same compound?
Answer: stable disease

Question: And the disease response (AML; two AML patients, 120 mg/m^2/day, iv daily for 5 days of 21 day cycle)?
Answer: stable disease

Question: What about the disease response (ALL; 170 mg/m^2/day, bone marrow biopsy after cycle 1) of the same compound?
Answer: partial response

Question: And the disease response (ALL; 240 mg/m^2/day, after cycle 1)?
Answer: stable disease

Question: What about the disease response (ALL; 330 mg/m^2/day, after cycle 1) of the same compound?
Answer: stable disease

Question: Which results are given for `CC(C)C[C@H](NC(=O)[C@H](Cc1ccccc1)NC(=O)c1cnccn1)B(O)O` [bortezomib, reference compound]?
Answer: anti-apoptotic Mcl-1 [7]: accumulated; expression of anti-apoptotic Bcl-2 and Bcl-xL [7]: decreased; pro-apoptotic BH-3 member Noxa and cleavage of BID [7]: induced
